Data taken from the supplement of paper PMC11208160.

test: recombinant UMI read abundance after kanamycin selection (control-corrected) (log10(CPM+1)); higher = more efficient recombination; extreme values may be limits of the assay; sequences stand for … in AGTGCAGAGAAAATCGGCCAGTTTTCTCTGCCTGCAGTCCGCATGCCGTGGGACCCCTTGGGTTCTAACCTGTTGCCTAGATTTATGCAGCGGACTGCCTTTCTCCCAAAGTGATAAACCGG…AGGTTGGTTTCACT; site = the 11-nt donor
Method in brief: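 Sequencing read counts were converted to CPM, averaged over two replicates and scaled by control-derived factors. Results are given as log10(CPM+1). The reads covered the donor–target junction of recombinant UMIs from a pooled Escherichia coli screen of donor and donor-binding-loop pairs for the IS621 bridge recombinase.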
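Also: IS621 bridge recombinase in Escherichia coli cells against a fixed T5 target plasmid.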

Row | Sequence | recombinant UMI read abundance (log10)
1 | CGGAATCCATGGACCGGTTTTCCCGGTAATCCGTATTTGTT (site AGGAATCCTTA) | 0
2 | CGGAATCCATGGACCGGTTTTCCCGGTAATCCGTATTTGTT (site AGGAATTCTAA) | 0
3 | CGGAATCCATGGACCGGTTTTCCCGGTAATCCGTATTTGTT (site AGGATTCCTAA) | 0
4 | CGGAATCCATGGACCGGTTTTCCCGGTAATCCGTATTTGTT (site AGGGATCCTAA) | 0.0088
5 | CGGAATCCATGGACCGGTTTTCCCGGTAATCCGTATTTGTT (site CAGAAGCCTAA) | 0.0058
6 | CGGAATCCATGGACCGGTTTTCCCGGTAATCCGTATTTGTT (site CAGAATACTAA) | 0
7 | CGGAATCCATGGACCGGTTTTCCCGGTAATCCGTATTTGTT (site CAGAATCCTAA) | 0
8 | CGGAATCCATGGACCGGTTTTCCCGGTAATCCGTATTTGTT (site CAGAATCCTAT) | 0
9 | CGGAATCCATGGACCGGTTTTCCCGGTAATCCGTATTTGTT (site CAGAATCCTGA) | 0
10 | CGGAATCCATGGACCGGTTTTCCCGGTAATCCGTATTTGTT (site CAGAGTCCTAA) | 0.0165
11 | CGGAATCCATGGACCGGTTTTCCCGGTAATCCGTATTTGTT (site CAGTATCCTAA) | 0.0125
12 | CGGAATCCATGGACCGGTTTTCCCGGTAATCCGTATTTGTT (site CATAATCCTAA) | 0
13 | CGGAATCCATGGACCGGTTTTCCCGGTAATCCGTATTTGTT (site CCAAATCCTAA) | 0
14 | CGGAATCCATGGACCGGTTTTCCCGGTAATCCGTATTTGTT (site CCGAAACCTAA) | 0.0076
15 | CGGAATCCATGGACCGGTTTTCCCGGTAATCCGTATTTGTT (site CCGAATCCTAA) | 0.00308
16 | CGGAATCCATGGACCGGTTTTCCCGGTAATCCGTATTTGTT (site CCGAATCCTAG) | 0
17 | CGGAATCCATGGACCGGTTTTCCCGGTAATCCGTATTTGTT (site CCGAATCCTTA) | 0
18 | CGGAATCCATGGACCGGTTTTCCCGGTAATCCGTATTTGTT (site CCGAATTCTAA) | 0
19 | CGGAATCCATGGACCGGTTTTCCCGGTAATCCGTATTTGTT (site CCGATTCCTAA) | 0.00402

Row | Sequence | recombinant UMI read abundance (log10)
20 | CGGAATCCATGGACCGGTTTTCCCGGTAATCCGTATTTGTT (site CCGGATCCTAA) | 0
21 | CGGAATCCATGGACCGGTTTTCCCGGTAATCCGTATTTGTT (site CGAAAACCTAA) | 0
22 | CGGAATCCATGGACCGGTTTTCCCGGTAATCCGTATTTGTT (site CGAAATCCTAA) | 0
23 | CGGAATCCATGGACCGGTTTTCCCGGTAATCCGTATTTGTT (site CGAAATCCTAG) | 0
24 | CGGAATCCATGGACCGGTTTTCCCGGTAATCCGTATTTGTT (site CGAAATCCTTA) | 0.014
25 | CGGAATCCATGGACCGGTTTTCCCGGTAATCCGTATTTGTT (site CGAAATTCTAA) | 0
26 | CGGAATCCATGGACCGGTTTTCCCGGTAATCCGTATTTGTT (site CGAATTCCTAA) | 0
27 | CGGAATCCATGGACCGGTTTTCCCGGTAATCCGTATTTGTT (site CGAGATCCTAA) | 0
28 | CGGAATCCATGGACCGGTTTTCCCGGTAATCCGTATTTGTT (site CGCAACCCTAA) | 0.00816
29 | CGGAATCCATGGACCGGTTTTCCCGGTAATCCGTATTTGTT (site CGCAATCCTAA) | 0.00384
30 | CGGAATCCATGGACCGGTTTTCCCGGTAATCCGTATTTGTT (site CGCAATCCTAC) | 0
31 | CGGAATCCATGGACCGGTTTTCCCGGTAATCCGTATTTGTT (site CGCAATCCTCA) | 0.00634
32 | CGGAATCCATGGACCGGTTTTCCCGGTAATCCGTATTTGTT (site CGCAATGCTAA) | 0.00802
33 | CGGAATCCATGGACCGGTTTTCCCGGTAATCCGTATTTGTT (site CGCACTCCTAA) | 0.0157
34 | CGGAATCCATGGACCGGTTTTCCCGGTAATCCGTATTTGTT (site CGCCATCCTAA) | 0
35 | CGGAATCCATGGACCGGTTTTCCCGGTAATCCGTATTTGTT (site CGGAAACCTAA) | 1.09
36 | CGGAATCCATGGACCGGTTTTCCCGGTAATCCGTATTTGTT (site CGGAAACCTAG) | 0.112
37 | CGGAATCCATGGACCGGTTTTCCCGGTAATCCGTATTTGTT (site CGGAAACCTTA) | 0
38 | CGGAATCCATGGACCGGTTTTCCCGGTAATCCGTATTTGTT (site CGGAAATCTAA) | 0

Row | Sequence | recombinant UMI read abundance (log10)
39 | CGGAATCCATGGACCGGTTTTCCCGGTAATCCGTATTTGTT (site CGGAACCCTAA) | 0.157
40 | CGGAATCCATGGACCGGTTTTCCCGGTAATCCGTATTTGTT (site CGGAACCCTAC) | 0.00563
41 | CGGAATCCATGGACCGGTTTTCCCGGTAATCCGTATTTGTT (site CGGAACCCTCA) | 0.0146
42 | CGGAATCCATGGACCGGTTTTCCCGGTAATCCGTATTTGTT (site CGGAACGCTAA) | 0.00389
43 | CGGAATCCATGGACCGGTTTTCCCGGTAATCCGTATTTGTT (site CGGAAGACTAA) | 0
44 | CGGAATCCATGGACCGGTTTTCCCGGTAATCCGTATTTGTT (site CGGAAGCCTAA) | 0.0104
45 | CGGAATCCATGGACCGGTTTTCCCGGTAATCCGTATTTGTT (site CGGAAGCCTAT) | 0.00319
46 | CGGAATCCATGGACCGGTTTTCCCGGTAATCCGTATTTGTT (site CGGAAGCCTGA) | 0
47 | CGGAATCCATGGACCGGTTTTCCCGGTAATCCGTATTTGTT (site CGGAATACTAA) | 0
48 | CGGAATCCATGGACCGGTTTTCCCGGTAATCCGTATTTGTT (site CGGAATACTAT) | 0
49 | CGGAATCCATGGACCGGTTTTCCCGGTAATCCGTATTTGTT (site CGGAATACTGA) | 0
50 | CGGAATCCATGGACCGGTTTTCCCGGTAATCCGTATTTGTT (site CGGAATCCTAA) | 1.19
51 | CGGAATCCATGGACCGGTTTTCCCGGTAATCCGTATTTGTT (site CGGAATCCTAC) | 0
52 | CGGAATCCATGGACCGGTTTTCCCGGTAATCCGTATTTGTT (site CGGAATCCTAG) | 0
53 | CGGAATCCATGGACCGGTTTTCCCGGTAATCCGTATTTGTT (site CGGAATCCTAT) | 0
54 | CGGAATCCATGGACCGGTTTTCCCGGTAATCCGTATTTGTT (site CGGAATCCTCA) | 0.00562
55 | CGGAATCCATGGACCGGTTTTCCCGGTAATCCGTATTTGTT (site CGGAATCCTCC) | 0.00652
56 | CGGAATCCATGGACCGGTTTTCCCGGTAATCCGTATTTGTT (site CGGAATCCTGA) | 1.65
57 | CGGAATCCATGGACCGGTTTTCCCGGTAATCCGTATTTGTT (site CGGAATCCTGT) | 0
